The values that follow come from patent publication US20240239790A1, “7-Morpholino-1,6-Naphthyridin-5-yl Derivatives and Pharmaceutical Compositions Thereof Useful as DNA-PK Inhibitor” (adMare Therapeutics Society, priority 2021, published 2024).

SMILES strings stand for the structures. Where two headings read alike, the source gives them in different places.

One data set has as its system FaDu cell line. Kind of data set: Prodrug Activation in Hypoxic Stirred Tumour Cell Suspensions. Particulars: 10 μM, 4 hours.
In data set [1] the test system is pH2AX induction in HCT116 ATM-/- multicellular tumour spheroids. As to the kind of experiment: Prodrug Radiation Sensitization in Multicellular Tumour Spheroids, inhibition of pH2AX induction following radiation. It is filed as cell-based. Particulars: Homo sapiens, HCT-116, 20 Gy. As for the experimental part:
Prodrug compounds were assayed to determine their potency in 3D multicellular spheroids in media maintained under 20% vs 5% oxygen. Multicellular tumour spheroids were grown to approximately 0.5 mm in diameter and irradiated with 20 Gy in combination with inhibitor test compounds to determine their potency using HCT 116 and FaDu cell lines. Experiments were carried out in 96 well plates containing 0.7 mls of MEM media containing 10% FBS and 10 mM glucose under 5% CO2 at 37° C. Following dilution of compounds 1:1000 from DMSO stocks, compounds were serially diluted from 10 μM down to 3.5 nM and 5-10 spheroids added. 96 well plates were constantly stirred to avoid spheroids settling during the course of the experiment. Endpoints were pDNA-PK (ser 2056) or pH2AX (ser 139) status in spheroid cryosections taken 1 or 2 hours following radiation and fixed immediately in formalin. Using tumour cell lines deficient in ATM improved the assay signal to noise and gH2AX readout. Using this assay prodrug activity could be compared in the more oxygenated outer spheroid layers versus less oxygenated hypoxic central cell layers.

Data set [2] deals with T1, DNA-PK phosphorylation at Serine 2056 (Homo sapiens, UniProt P78527).
T1 construct: FaDu cells were purchased from ATCC; host or cells: FaDu
As to the kind of experiment: Cellular Assay for Inhibition of DNA-PK Phosphorylation at Serine 2056 in FaDu cells (sandwich ELISA, neocarzinostatin). To be noted: pSer2056 DNA-PK, Table 3. The data set is classed as cell-based. As to the method: FaDu cells were purchased from ATCC and maintained in MEM alpha medium (Life Technologies, cat. no. 12561) supplemented with 10% fetal bovine serum, and 1% GlutaMAX at 37° C. supplemented with 5% CO2. 50,000 cells were seeded to each well of a 96-well cell culture plate in 50 μL of culture medium and incubated for 16-24 hours. Three-fold serially diluted compounds were prepared in DMSO. Culture media was used to prepare compound treatments to 0.3% DMSO (dimethyl sulphoxide) content. Compound treatments were added to the cells for 1 hour prior incubation, followed by the addition of neocarzinostatin in fresh culture medium to 1 μg/mL final concentration for an additional 2 hours incubation to induce DNA DSBs (double-strand breaks). DMSO controls were incubated with fresh culture medium alone for the additional two hours incubation. The cells were then lysed and frozen at −20° C. Cell lysates were thawed on wet ice and protein concentrations quantified by BCA Protein Assay (Thermo #23225). Lysis buffer was used to normalize lysates by protein content and all lysates were then investigated by sandwich ELISA by means of DNA-PK-specific antibodies (Abcam ab44815: total DNA-PK; ab124918: phosphoserine-2056 DNA-PK) in sandwich ELISA format on the MSD S600MM platform (MesoScale Discovery). % inhibition was calculated for all data points: =1−(DATA_PT−AVERAGE(DMSO controls))/(AVERAGE(NCS controls)−AVERAGE(DMSO controls)). Logarithm of the molar concentration of compound was plotted against percent inhibition to calculate IC50 values, with curve fit settings for data fit to log(inhibitor) vs. normalized response—Variable slope using curve fit software (GraphPad Prism).

Setting [3] is: 5% O2, inner layers, read-out: Prodrug 5% O2 Inner layers EC50.
Setting [4] is: 5% O2, outer layers, read-out: Prodrug 5% O2 Outer layers EC50.
The mark [5] stands for this setting: 20% O2, outer layers, read-out: Prodrug 20% O2 Outer layers EC50.

Consider `Cn1c(Cn2nnc(-c3cnc4cc(N5CCOCC5)nc(O[C@H]5CC[C@@H](Nc6ncccn6)CC5)c4c3)n2)cnc1[N+](=O)[O-]` [LFA121, N-[4-[[3-[2-[(3-Methyl-2-nitro-imidazol-4-yl)methyl]tetrazol-5-yl]-7-morpholino-1,6-naphthyridin-5-yl]oxy]cyclohexyl]pyrimidin-2-amine], for which, in the data set on FaDu cell line, the “Fraction of prodrug converted to active form, Hypoxic 0.2% O2” value (shortened to “Fraction … Hypoxic 0.2% O2”) is given as “A (A is 0.15 to 1)”. Moreover, in the data set with FaDu cell line, the “Fraction of prodrug converted to active form, Oxic 5% O2” value (from here on “Fraction … Oxic 5% O2”) is “B (B is 0.05 to 0.15)”. The EC50 was in the range of 500 to 1000 nM in data set [1] (setting [3]), 1000 to 10000 nM in data set [1] (setting [4]) and 1000 to 10000 nM in data set [1] (setting [5]).

For the compound `Cn1c(Cn2nnc(-c3cnc4cc(N5CCOCC5)nc(O[C@H]5CC[C@@H](n6ccnc6)CC5)c4c3)n2)cnc1[N+](=O)[O-]` [LFA123, 4-[5-(4-imidazol-1-ylcyclohexoxy)-3-[2-[(3-methyl-2-nitro-imidazol-4-yl)methyl]tetrazol-5-yl]-1,6-naphthyridin-7-yl]morpholine], the “Fraction … Hypoxic 0.2% O2” value in the data set with FaDu cell line is given as “A (A is 0.15 to 1)”. Moreover, the “Fraction … Oxic 5% O2” value in the data set on FaDu cell line is on record as “B (B is 0.05 to 0.15)”. Moreover, the EC50 in data set [1] (setting [3]), in data set [1] (setting [4]) and in data set [1] (setting [5]) was 1000 to 10000 nM each time.

Take `Cn1c(Cn2cnnc2-c2cnc3cc(N4CCOCC4)nc(OC4CCC(Nc5ncccn5)CC4)c3c2)cnc1[N+](=O)[O-]` (stereo not shown) [LFA135, N-[4-[[3-[4-[(3-Methyl-2-nitro-imidazol-4-yl)methyl]-1,2,4-triazol-3-yl]-7-morpholino-1,6-naphthyridin-5-yl]oxy]cyclohexyl]pyrimidin-2-amine]: the “Fraction … Hypoxic 0.2% O2” value with FaDu cell line is reported as “D (D is 0 to 0.02)”. The “Fraction … Oxic 5% O2” value in the data set on FaDu cell line is given as “D (D is 0 to 0.02)”. Moreover, the EC50 in data set [1] (setting [3]), in data set [1] (setting [4]) and in data set [1] (setting [5]) was 1000 to 10000 nM throughout.

Consider `CS(=O)(=O)Nc1cnc2cc(N3CCOCC3)nc(O[C@H]3CC[C@@H](Nc4ncc(CCN5CCOCC5)cn4)CC3)c2c1` [LFA2030, N-[7-morpholino-5-[4-[[5-(2-morpholinoethyl)pyrimidin-2-yl]amino]cyclohexoxy]-1,6-naphthyridin-3-yl]methanesulfonamide], for which the IC50 in data set [2] was < 100 nM.

Turning to `CN1CCN(CCc2cnc(N[C@H]3CC[C@@H](Oc4nc(N5CCOCC5)cc5ncc(NS(C)(=O)=O)cc45)CC3)nc2)CC1` [LFA2031, N-[5-[4-[[5-[2-(4-methylpiperazin-1-yl)ethyl]pyrimidin-2-yl]amino]cyclohexoxy]-7-morpholino-1,6-naphthyridin-3-yl]methanesulfonamide], the IC50 in data set [2] was < 100 nM.

With `CN1CCN(c2cnc(N[C@H]3CC[C@@H](Oc4nc(N5CCOCC5)cc5ncc(NS(C)(=O)=O)cc45)CC3)nc2)CC1` [LFA2032, N-[5-[4-[[5-(4-methylpiperazin-1-yl)pyrimidin-2-yl]amino]cyclohexoxy]-7-morpholino-1,6-naphthyridin-3-yl]methanesulfonamide], in data set [2], the IC50 was < 100 nM.

Regarding `CN1CCC(Oc2cnc(N[C@H]3CC[C@@H](Oc4nc(N5CCOCC5)cc5ncc(O)cc45)CC3)nc2)C1` (stereo partly shown) [LFA2033, 5-[4-[[5-(1-methylpyrrolidin-3-yl)oxypyrimidin-2-yl]amino]cyclohexoxy]-7-morpholino-1,6-naphthyridin-3-ol], in data set [2], the IC50 was < 100 nM.

For the compound `CN1CCN(CCOc2cnc(N[C@H]3CC[C@@H](Oc4nc(N5CCOCC5)cc5ncc(O)cc45)CC3)nc2)CC1` [LFA2034, 5-[4-[[5-[2-(4-methylpiperazin-1-yl)ethoxy]pyrimidin-2-yl]amino]cyclohexoxy]-7-morpholino-1,6-naphthyridin-3-ol], the IC50 in data set [2] is < 100 nM.

Take `Oc1cnc2cc(N3CCOCC3)nc(O[C@H]3CC[C@@H](Nc4ncc(OCCN5CCOCC5)cn4)CC3)c2c1` [LFA2035, 7-morpholino-5-[4-[[5-(2-morpholinoethoxy)pyrimidin-2-yl]amino]cyclohexoxy]-1,6-naphthyridin-3-ol]: the IC50 in data set [2] was < 100 nM.

For the compound `CN1CC[C@H](Oc2cnc(N[C@H]3CC[C@@H](Oc4nc(N5CCOCC5)cc5ncc(NS(C)(=O)=O)cc45)CC3)nc2)C1` [LFA2036, N-[5-[4-[[5-[(3S)-1-methylpyrrolidin-3-yl]oxypyrimidin-2-yl]amino]cyclohexoxy]-7-morpholino-1,6-naphthyridin-3-yl] methanesulfonamide], the IC50 in data set [2] is < 100 nM.

For `CN1CC[C@@H](Oc2cnc(N[C@H]3CC[C@@H](Oc4nc(N5CCOCC5)cc5ncc(NS(C)(=O)=O)cc45)CC3)nc2)C1` [LFA2037, N-[5-[4-[[5-[(3R)-1-methylpyrrolidin-3-yl]oxypyrimidin-2-yl]amino]cyclohexoxy]-7-morpholino-1,6-naphthyridin-3-yl] methanesulfonamide], in data set [2], the IC50 was < 100 nM.

With `Cc1nc(N[C@H]2CC[C@@H](Oc3nc(N4CCOCC4)cc4ncc(NS(C)(=O)=O)cc34)CC2)ncc1N1CCN(C)CC1` [LFA2038, N-[5-[4-[[4-methyl-5-(4-methylpiperazin-1-yl)pyrimidin-2-yl]amino]cyclohexoxy]-7-morpholino-1,6-naphthyridin-3-yl]methanesulfonamide], the IC50 in data set [2] was < 100 nM.

Turning to `Cc1nc(N[C@H]2CC[C@@H](Oc3nc(N4CCOCC4)cc4ncc(NS(C)(=O)=O)cc34)CC2)ncc1OCCN1CCN(C)CC1` [LFA2039, N-[5-[4-[[4-methyl-5-[2-(4-methylpiperazin-1-yl)ethoxy]pyrimidin-2-yl]amino]cyclohexoxy]-7-morpholino-1,6-naphthyridin-3-yl]methanesulfonamide], the IC50 in data set [2] is < 100 nM.

As to `Cc1nc(N[C@H]2CC[C@@H](Oc3nc(N4CCOCC4)cc4ncc(NS(C)(=O)=O)cc34)CC2)ncc1OCCN1CCOCC1` [LFA2040, N-[5-[4-[[4-methyl-5-(2-morpholinoethoxy)pyrimidin-2-yl]amino]cyclohexoxy]-7-morpholino-1,6-naphthyridin-3-yl]methanesulfonamide], in data set [2], the IC50 is < 100 nM.

Take `CN1CCc2nc(N[C@H]3CC[C@@H](Oc4nc(N5CCOCC5)cc5ncc(O)cc45)CC3)ncc2C1` [LFA2078, 5-[4-[(6-methyl-7,8-dihydro-5H-pyrido[4,3-d]pyrimidin-2-yl)amino]cyclohexoxy]-7-morpholino-1,6-naphthyridin-3-ol]: the IC50 in data set [2] is < 100 nM.

In the case of `CN(C)CCOc1cnc(N[C@H]2CC[C@@H](Oc3nc(N4CCOCC4)cc4ncc(O)cc34)CC2)nc1` [LFA2079, 5-[4-[[5-[2-(dimethylamino)ethoxy]pyrimidin-2-yl]amino]cyclohexoxy]-7-morpholino-1,6-naphthyridin-3-ol], the IC50 in data set [2] was < 100 nM.

For `CN1CCN(c2cnc(N[C@H]3CC[C@@H](Oc4nc(N5CCOCC5)cc5ncc(O)cc45)CC3)nc2)CC1` [LFA2080, 5-[4-[[5-(4-methylpiperazin-1-yl)pyrimidin-2-yl]amino]cyclohexoxy]-7-morpholino-1,6-naphthyridin-3-ol], the half-inhibitory concentration (IC50) in data set [2] was < 100 nM.

On to `Cn1c(COc2cnc3cc(N4CCOCC4)nc(O[C@H]4CC[C@@H](Nc5nccnc5C#N)CC4)c3c2)cnc1[N+](=O)[O-]` [LFA2095, 3-[[4-[[3-[(3-methyl-2-nitro-imidazol-4-yl)methoxy]-7-morpholino-1,6-naphthyridin-5-yl]oxy]cyclohexyl]amino]pyrazine-2-carbonitrile], for which, in data set [2], the IC50 fell in the range of 10000 to 30000 nM.

The compound `CC(Oc1cnc2cc(N3CCOCC3)nc(O[C@H]3CC[C@@H](Nc4cncc(C(F)(F)F)n4)CC3)c2c1)c1cnc([N+](=O)[O-])n1C` (stereo partly shown) [LFA2096, N-[4-[[3-[1-(3-methyl-2-nitro-imidazol-4-yl)ethoxy]-7-morpholino-1,6-naphthyridin-5-yl]oxy]cyclohexyl]-6-(trifluoromethyl)pyrazin-2-amine] had an IC50 in data set [2] of 10000 to 30000 nM.
